Test results reported in patent US8652823B2, “Strain for butanol production with increased membrane unsaturated trans fatty acids” (Butamax(TM) Advanced Biofuels LLC, priority 2008, dated 2014).

What was measured:
Assay type in all cases: cell-based, Lactobacillus plantarum
L. plantarum PN0512 [1] = experiment: Growth yield of fatty acid fed cultures in the presence of isobutanol; conditions: for OD600 (growth yield): 20 hours at 30° C., average of two experiments
Protocol: (§1) Growth medium was semi-synthetic LAB medium, pH7, with bovine serum albumin (BSA) used as a carrier. […] The composition of this medium is as follows:
(§2) All medium ingredients were purchased from Sigma Chemical Company (St. Louis, Mo.) except yeast extract and casamino acids, which were purchased from Beckton, Dickinson and Co (Sparks, Md.). Free fatty acids, added to a final concentration of […] from 1% ethanol stock solutions (stored at −20° C.), were purchased from Sigma Chemical Company (St Louis, Mo.), Isobutanol, 1-butanol, 2-butanol, and methyl ethyl ketone (MEK) were purchased from Sigma Chemical Company (St. Louis, Mo.).
(§3) A working stock of Lactobacillus plantarum PN0512 (ATCC # PTA-7727) was prepared to use as a consistent source of inoculum. Cultures were grown in MRS medium (Acumedia Manufacturers, Inc. Lansing, Mich.) at 30° C. overnight. Glycerol was added to a final concentration of 12.5% and aliquots were frozen at −80° C. One aliquot was thawed at room temperature and used to inoculate all tubes in an experiment and then discarded.
(§4) For growth yield experiments, 5 ml of medium with fatty acids and several concentrations of 1-butanol, isobutanol, 2-butanol, or MEK in 15 ml screw cap tubes was inoculated with 12.5 μl of the working stock giving an initial OD600 of 0.012. The caps were tightly sealed and incubated at 30° C. on a roller drum for 20 to 26 hours, at which time 1.0 ml was removed and OD600 was measured with a blank of medium amended with the fatty acid. All solvent concentrations are reported as % (w/v).
Growth in the presence of these fatty acids and various concentrations of isobutanol was tested. Cultures were prepared as described in General Methods.

L. plantarum PN0512 [2] = experiment: Growth yield of fatty acid fed cultures in the presence of 1-butanol; conditions: for OD600 (growth yield): overnight growth at 30° C., average of biological replicates
Protocol: as §1, §2, §3, §4
(§5) Cultures were prepared as described in General Methods.

L. plantarum PN0512 [3] = experiment: Growth yield of fatty acid fed cultures in the presence of 2-butanol; conditions: for OD600 (growth yield): overnight growth at 30° C., average of biological replicates
Protocol: as §1, §2, §3, §4, §5

L. plantarum PN0512 [4] = experiment: Growth yield of fatty acid fed cultures in the presence of MEK; conditions: for OD600 (growth yield): overnight growth at 30° C., average of biological replicates
Protocol: as §1, §2, §3, §4, §5

| SMILES | OD600 (growth yield) (L. plantarum PN0512 [1]; isobutanol 1.5 % w/v) | OD600 (growth yield) (L. plantarum PN0512 [1]; isobutanol 2.0 % w/v) | OD600 (growth yield) (L. plantarum PN0512 [1]; isobutanol 2.5 % w/v) | OD600 (growth yield) (L. plantarum PN0512 [1]; isobutanol 2.7 % w/v) | OD600 (growth yield) (L. plantarum PN0512 [1]; isobutanol 2.9 % w/v) | OD600 (growth yield) (L. plantarum PN0512 [1]; isobutanol 3.1 % w/v) | OD600 (growth yield) (L. plantarum PN0512 [1]; isobutanol 3.3 % w/v) | OD600 (growth yield) (L. plantarum PN0512 [1]; isobutanol 3.5 % w/v) | OD600 (growth yield) (L. plantarum PN0512 [2]; 1-butanol 0 % (w/v)) | OD600 (growth yield) (L. plantarum PN0512 [2]; 1-butanol 2.0 % (w/v)) | OD600 (growth yield) (L. plantarum PN0512 [2]; 1-butanol 2.25 % (w/v)) | OD600 (growth yield) (L. plantarum PN0512 [2]; 1-butanol 2.5 % (w/v)) | OD600 (growth yield) (L. plantarum PN0512 [2]; 1-butanol 2.75 % (w/v)) | OD600 (growth yield) (L. plantarum PN0512 [2]; 1-butanol 3.0 % (w/v)) | OD600 (growth yield) (L. plantarum PN0512 [3]; 2-butanol 0 % w/v) | OD600 (growth yield) (L. plantarum PN0512 [3]; 2-butanol 2.0 % w/v) | OD600 (growth yield) (L. plantarum PN0512 [3]; 2-butanol 4.0 % w/v) | OD600 (growth yield) (L. plantarum PN0512 [3]; 2-butanol 4.5 % w/v) | OD600 (growth yield) (L. plantarum PN0512 [3]; 2-butanol 4.7 % w/v) | OD600 (growth yield) (L. plantarum PN0512 [3]; 2-butanol 4.9 % w/v) | also measured |
| --- | --- | --- | --- | --- | --- | --- | --- | --- | --- | --- | --- | --- | --- | --- | --- | --- | --- | --- | --- | --- | --- |
| CCCCCCCC/C=C/CCCCCCCC(=O)O [elaidic acid, (E)-octadec-9-enoic acid] | 1.145 | 1.100 | 0.922 | 0.606 | 0.281 | 0.122 | 0.072 | 0.042 | 1.508 | 1.039 | 1.003 | 0.559 | 0.095 | 0.009 | 1.490 | 1.430 | 1.030 | 0.400 | 0.186 | 0.088 | growth yield higher than in the oleic acid fed cultures (L. plantarum PN0512 [1]; 2.5% w/v isobutanol): 78%; growth yield compared with the oleic acid fed cultures (L. plantarum PN0512 [1]; concentrations greater than 2% isobutanol): greater; growth yield higher than in the oleic acid fed cultures (L. plantarum PN0512 [2]; 2.5% w/v 1-butanol): greater than 3 fold; growth yield compared with the oleic acid fed cultures (L. plantarum PN0512 [2]; concentrations greater than 2% 1-butanol): greater; tolerance to 2-butanol when compared to the oleic acid fed culture (L. plantarum PN0512 [3]): improved tolerance; OD600 (growth yield) (L. plantarum PN0512 [3]; 2-butanol 5.1 % w/v): 0.038; OD600 (growth yield) (L. plantarum PN0512 [3]; 2-butanol 5.3 % w/v): 0.030; OD600 (growth yield) (L. plantarum PN0512 [3]; 2-butanol 5.5 % w/v): 0.008; growth yield higher than in the oleic acid fed cultures (L. plantarum PN0512 [3]; 4.5% w/v 2-butanol): 4 fold; tolerance to MEK as compared with oleic acid fed cultures (L. plantarum PN0512 [4]): did not have improved tolerance to MEK; OD600 (growth yield) (L. plantarum PN0512 [4]; MEK 0 % (w/v)): 1.548; OD600 (growth yield) (L. plantarum PN0512 [4]; MEK 3.5 % (w/v)): 1.0041; OD600 (growth yield) (L. plantarum PN0512 [4]; MEK 4.0 % (w/v)): 0.9105; OD600 (growth yield) (L. plantarum PN0512 [4]; MEK 4.5 % (w/v)): 0.8871; OD600 (growth yield) (L. plantarum PN0512 [4]; MEK 5.0 % (w/v)): 0.3235; OD600 (growth yield) (L. plantarum PN0512 [4]; MEK 5.5 % (w/v)): 0.1477 |
| CCCCCCCC/C=C\CCCCCCCC(=O)O [oleic acid, reference compound] | 1.110 | 1.130 | 0.519 | 0.387 | 0.095 | 0.063 | 0.035 | 0.015 | 1.509 | 1.026 | 0.611 | 0.161 | 0.061 | 0.003 | 1.480 | 1.410 | 0.431 | 0.100 | 0.067 | 0.040 | OD600 (growth yield) (L. plantarum PN0512 [3]; 2-butanol 3.0 % w/v): 1.130; OD600 (growth yield) (L. plantarum PN0512 [3]; 2-butanol 5.1 % w/v): 0.030; OD600 (growth yield) (L. plantarum PN0512 [3]; 2-butanol 5.3 % w/v): 0.004; OD600 (growth yield) (L. plantarum PN0512 [3]; 2-butanol 5.5 % w/v): 0.004; OD600 (growth yield) (L. plantarum PN0512 [4]; MEK 0 % (w/v)): 1.539; OD600 (growth yield) (L. plantarum PN0512 [4]; MEK 3.5 % (w/v)): 1.002; OD600 (growth yield) (L. plantarum PN0512 [4]; MEK 4.0 % (w/v)): 0.9446; OD600 (growth yield) (L. plantarum PN0512 [4]; MEK 4.5 % (w/v)): 0.942; OD600 (growth yield) (L. plantarum PN0512 [4]; MEK 5.0 % (w/v)): 0.6828; OD600 (growth yield) (L. plantarum PN0512 [4]; MEK 5.5 % (w/v)): 0.5004 |
